Results reported in PMC8213057, “Targeting ALK2: An Open Science Approach to Developing Therapeutics for the Treatment of Diffuse Intrinsic Pontine Glioma” (Journal of Medicinal Chemistry, 2020).

Legend:
NEK1 = target: T1, NEK1 (Homo sapiens, UniProt Q96PY6); settings: 1 μM; Run 1, Run 2
T1 sequence (Q96PY6 1-1258): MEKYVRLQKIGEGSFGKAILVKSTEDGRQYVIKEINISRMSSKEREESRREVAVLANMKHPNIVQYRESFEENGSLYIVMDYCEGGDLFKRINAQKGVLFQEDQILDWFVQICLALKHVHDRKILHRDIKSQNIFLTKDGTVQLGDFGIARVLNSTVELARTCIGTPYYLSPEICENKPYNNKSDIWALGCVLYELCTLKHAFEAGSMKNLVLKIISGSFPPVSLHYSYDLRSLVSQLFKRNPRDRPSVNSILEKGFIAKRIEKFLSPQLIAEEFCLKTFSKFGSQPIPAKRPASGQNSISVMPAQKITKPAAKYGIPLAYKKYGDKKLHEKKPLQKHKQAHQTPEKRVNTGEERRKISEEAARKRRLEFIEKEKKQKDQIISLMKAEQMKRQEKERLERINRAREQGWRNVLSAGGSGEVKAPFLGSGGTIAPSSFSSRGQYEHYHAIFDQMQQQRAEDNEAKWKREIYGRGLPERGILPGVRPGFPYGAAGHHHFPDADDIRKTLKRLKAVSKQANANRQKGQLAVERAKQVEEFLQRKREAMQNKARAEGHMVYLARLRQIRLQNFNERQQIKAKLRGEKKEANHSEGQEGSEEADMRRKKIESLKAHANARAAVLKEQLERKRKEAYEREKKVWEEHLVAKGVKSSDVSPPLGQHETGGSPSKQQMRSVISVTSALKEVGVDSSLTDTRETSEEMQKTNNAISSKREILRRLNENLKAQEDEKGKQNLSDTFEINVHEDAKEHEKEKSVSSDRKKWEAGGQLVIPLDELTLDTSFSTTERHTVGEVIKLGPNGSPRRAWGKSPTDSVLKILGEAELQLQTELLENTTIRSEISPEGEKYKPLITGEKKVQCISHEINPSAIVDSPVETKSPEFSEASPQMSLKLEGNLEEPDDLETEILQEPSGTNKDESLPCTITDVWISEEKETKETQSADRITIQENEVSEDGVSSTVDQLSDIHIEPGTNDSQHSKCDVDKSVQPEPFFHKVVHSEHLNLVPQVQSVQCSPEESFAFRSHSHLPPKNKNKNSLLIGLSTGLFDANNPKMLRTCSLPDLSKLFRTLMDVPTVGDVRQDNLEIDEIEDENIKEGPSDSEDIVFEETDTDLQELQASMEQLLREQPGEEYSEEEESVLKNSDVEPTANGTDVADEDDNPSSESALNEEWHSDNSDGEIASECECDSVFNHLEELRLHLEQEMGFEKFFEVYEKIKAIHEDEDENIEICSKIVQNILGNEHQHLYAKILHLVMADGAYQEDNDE

TAOK2/TAO1 = target: T2, TAOK2/TAO1 (Homo sapiens, UniProt Q9UL54); settings: 1 μM; Run 1, Run 2
T2 sequence (Q9UL54 1-1235): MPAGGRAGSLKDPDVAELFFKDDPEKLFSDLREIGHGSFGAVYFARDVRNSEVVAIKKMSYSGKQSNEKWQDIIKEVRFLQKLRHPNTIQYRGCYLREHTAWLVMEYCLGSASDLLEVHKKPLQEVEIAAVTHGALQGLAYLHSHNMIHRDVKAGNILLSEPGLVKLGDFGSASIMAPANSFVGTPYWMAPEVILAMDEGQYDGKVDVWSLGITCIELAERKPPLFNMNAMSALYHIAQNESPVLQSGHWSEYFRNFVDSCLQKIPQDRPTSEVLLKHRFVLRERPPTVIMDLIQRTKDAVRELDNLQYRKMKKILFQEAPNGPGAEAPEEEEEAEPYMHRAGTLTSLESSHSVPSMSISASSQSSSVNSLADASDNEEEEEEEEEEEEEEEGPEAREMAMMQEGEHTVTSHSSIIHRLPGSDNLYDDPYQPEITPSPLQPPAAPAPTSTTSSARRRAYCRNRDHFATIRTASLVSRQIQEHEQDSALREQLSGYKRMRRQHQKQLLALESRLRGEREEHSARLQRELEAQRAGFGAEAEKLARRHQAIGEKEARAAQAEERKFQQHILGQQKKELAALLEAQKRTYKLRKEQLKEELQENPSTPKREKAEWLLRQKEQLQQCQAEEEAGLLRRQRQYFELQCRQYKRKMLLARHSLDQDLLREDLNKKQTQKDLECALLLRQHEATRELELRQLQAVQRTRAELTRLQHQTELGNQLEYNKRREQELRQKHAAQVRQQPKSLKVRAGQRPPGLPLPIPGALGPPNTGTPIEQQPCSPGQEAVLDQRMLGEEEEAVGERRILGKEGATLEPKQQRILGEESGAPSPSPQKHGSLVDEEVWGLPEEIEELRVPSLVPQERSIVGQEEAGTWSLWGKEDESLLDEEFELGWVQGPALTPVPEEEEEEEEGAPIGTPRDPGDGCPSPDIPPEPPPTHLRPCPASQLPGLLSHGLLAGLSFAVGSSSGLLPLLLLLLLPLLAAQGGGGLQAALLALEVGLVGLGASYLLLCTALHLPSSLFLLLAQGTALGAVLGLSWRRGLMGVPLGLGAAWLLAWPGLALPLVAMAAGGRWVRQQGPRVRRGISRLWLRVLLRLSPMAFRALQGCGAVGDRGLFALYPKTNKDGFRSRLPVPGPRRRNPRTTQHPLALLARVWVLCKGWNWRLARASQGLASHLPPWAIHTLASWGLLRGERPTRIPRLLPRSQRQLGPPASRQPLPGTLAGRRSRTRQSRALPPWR

CDK3/cyclin E = CDK3/cyclin E (Homo sapiens, UniProt Q00526); assay: biochemical; settings: read-out: % enzyme activity, 1 μM; Run 1, Run 2
CDK3/cyclin E, sequence (Q00526 whole entry): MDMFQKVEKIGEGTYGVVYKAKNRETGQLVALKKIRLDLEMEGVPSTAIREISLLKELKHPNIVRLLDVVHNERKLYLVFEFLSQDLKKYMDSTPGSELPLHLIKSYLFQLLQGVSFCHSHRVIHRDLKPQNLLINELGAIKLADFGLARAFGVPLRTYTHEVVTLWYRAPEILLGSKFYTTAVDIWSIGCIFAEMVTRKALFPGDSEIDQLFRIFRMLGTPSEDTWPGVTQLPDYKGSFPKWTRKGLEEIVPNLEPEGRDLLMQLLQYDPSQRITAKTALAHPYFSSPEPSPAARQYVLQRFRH
CDK3/cyclin E, sequence (P24864 whole entry, further chain): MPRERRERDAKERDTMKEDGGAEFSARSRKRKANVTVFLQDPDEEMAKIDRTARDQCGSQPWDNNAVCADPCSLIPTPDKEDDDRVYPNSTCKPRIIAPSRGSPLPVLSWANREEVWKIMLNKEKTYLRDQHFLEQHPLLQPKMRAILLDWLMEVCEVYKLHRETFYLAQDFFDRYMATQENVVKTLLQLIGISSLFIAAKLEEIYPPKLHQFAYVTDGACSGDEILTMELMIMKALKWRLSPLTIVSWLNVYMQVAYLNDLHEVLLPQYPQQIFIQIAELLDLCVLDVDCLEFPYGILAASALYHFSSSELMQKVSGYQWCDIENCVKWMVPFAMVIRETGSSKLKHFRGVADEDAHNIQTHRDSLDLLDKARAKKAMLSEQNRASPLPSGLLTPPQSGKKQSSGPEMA

PLK2 = PLK2 (Homo sapiens, UniProt Q9NYY3); assay: biochemical; settings: read-out: % enzyme activity, 1 μM; Run 1, Run 2
PLK2, sequence (Q9NYY3 whole entry): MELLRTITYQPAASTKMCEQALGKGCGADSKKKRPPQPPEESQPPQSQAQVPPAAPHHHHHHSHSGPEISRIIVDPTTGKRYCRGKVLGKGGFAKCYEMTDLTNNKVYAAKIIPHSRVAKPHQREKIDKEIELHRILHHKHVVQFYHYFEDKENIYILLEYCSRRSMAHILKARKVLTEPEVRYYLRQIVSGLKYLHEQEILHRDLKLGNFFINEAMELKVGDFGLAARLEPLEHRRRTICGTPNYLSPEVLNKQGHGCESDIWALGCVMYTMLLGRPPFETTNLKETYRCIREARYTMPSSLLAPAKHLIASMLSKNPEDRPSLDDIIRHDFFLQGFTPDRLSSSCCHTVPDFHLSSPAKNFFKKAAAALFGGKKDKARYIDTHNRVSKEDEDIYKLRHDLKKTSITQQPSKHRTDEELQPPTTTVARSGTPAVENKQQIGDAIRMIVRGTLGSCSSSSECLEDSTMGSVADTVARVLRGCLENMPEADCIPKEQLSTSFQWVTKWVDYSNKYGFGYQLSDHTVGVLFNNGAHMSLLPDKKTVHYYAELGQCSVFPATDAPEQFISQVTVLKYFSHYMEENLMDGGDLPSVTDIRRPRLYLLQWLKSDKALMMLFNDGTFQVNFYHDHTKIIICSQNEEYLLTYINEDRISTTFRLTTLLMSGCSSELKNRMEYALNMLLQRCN

Row | SMILES | % enzyme activity (NEK1) [%] | % enzyme activity (TAOK2/TAO1) [%] | remaining activity at 1 µM (CDK3/cyclin E) [%] | remaining activity at 1 µM (PLK2) [%]
1 | COc1cc(-c2cncc(-c3ccc(N4CCN(C)CC4)cc3)c2C)cc(F)c1C(N)=O [Compound 26a, 2-Fluoro-6-methoxy-4-(4-methyl-5-(4-(4-methylpiperazin-1-yl)phenyl)pyridin-3-yl)benzamide] | 84.54 | 87.58 | 82.7 | 98.8
2 | COc1cc(-c2cncc(-c3ccc(N4C[C@@H](C)N(C)[C@@H](C)C4)cc3)c2C)cc(F)c1C(N)=O [Compound 26c, 2-Fluoro-6-methoxy-4-(4-methyl-5-(4-((3R,5S)-3,4,5-trimethylpiperazin-1-yl)phenyl)pyridin-3-yl)benzamide] | 84.46 | 99.37 | 78.7 | 103
